System: normotensive albino New Zealand rabbits
Experiment: Study of effect on intraocular pressure (IOP)
Assay type: in vivo, rabbit
Details: intra-cameral administration, dexamethasone 0.1% (positive control)
Description: Control samples: • Positive control: dexamethasone 0.1%. • Negative control: 0.9% sodium chloride saline solution Material and Method • The laboratory animals used were normotensive albino New Zealand rabbits. The rabbits were adapted to periods of light/dark (12/12 hours) needed to adjust and maintain stable the diurnal cycle of the intraocular pressure (IOP). • Rabbits were distributed in different groups: the positive control group (positive control sample), the negative control group (negative control sample) and two test groups (two test samples). • The treatment involved the injection of dexamethasone into the anterior chamber, meanwhile for the rest of groups; each animal was topically instilled, in each eye with the control sample or the test composition 4 times a day for 15 days. • Measurement of IOP of the groups was performed twice a day. After the instillation in each animal, it was observed the possibility of adverse effects of the respective compound on the ocular surface. Results

## C[C@@H]1C[C@H]2[C@@H]3CCC4=CC(=O)C=C[C@]4(C)[C@@]3(F)[C@@H](O)C[C@]2(C)[C@@]1(O)C(=O)CO [dexamethasone]
  elevation of the intraocular pressure: statistically significant elevation
